Reference: patent publication US8969294B2 (Istituto di Recerche di Biologia Molecolare P. Angeletti …, priority 2008, dated 2015)
Values belong to the compound of their own block, whether it stands above or below them. Square brackets hold non-standard residues; d marks the D form. Ends that are not written are not given here. Aib = CC(C)(N)C(=O)O

Experiments:
[1] = DIO mice, s.c. daily for seven days (Example 32); assay type: in vivo
Excerpt: The acylated glucagon analogs were as follows:

[2] = DIO mice, i.p. once a week for 2 weeks (Example 30); assay type: in vivo; settings: for blood glucose levels in response to a glucose injection: glucose 24 hours after peptide
Experimental: Changes in body weight of and food intake by the mice were measured 0, 1, 3, 5, 7, 8, 10, 12, and 14 days after injection. Blood glucose levels of the mice were monitored throughout the 14 days. Glucose tolerance tests were performed by injecting a 25% glucose in saline solution 1 hour or 24 hours after administration of the acylated or pegylated peptide and measuring blood glucose levels at −60, 0, 15, 30, 60, or 120 min after the glucose injection.

[3] = Glucose challenge in DIO mice after i.p. peptide (Examples 24, 25); assay type: in vivo; settings: 2, 20, 70 nmol/kg i.p.
Experimental: Diet-induced obesity (DIO) mice were injected intraperitoneally at the −15 min time point with 0.2, 2, 20, or 70 nmol/kg of one of the following:
A saline solution comprising 25% (v/v) glucose was injected at a dose of 1.5 g/kg of body weight at the 0 min time point. Blood glucose levels were measured at the −15, 0, 15, 30, 60, and 120 min time points.
DIO mice were injected intraperitoneally at the −24 hr time point with 70 nmol/kg of one of the following:
A saline solution comprising 25% (v/v) glucose was injected at a dose of 1.5 g/kg of body weight at the 0 min time point. Blood glucose levels were measured at the 0, 15, 30, 60, and 120 min time points.

[4] = Circular dichroism, percent helicity
GLP-1 receptor = GLP-1 receptor (Homo sapiens, UniProt P43220); assay: Functional assay, cAMP synthesis: luciferase reporter in HEK293 cells co-transfected with GLP-1 receptor
glucagon receptor = glucagon receptor (Homo sapiens, UniProt P47871); assay: Functional assay, cAMP synthesis: luciferase reporter in HEK293 cells co-transfected with glucagon receptor
[5] = Body weight of DIO mice after i.p. injection (Example 26); assay type: in vivo; settings: 15 or 70 nmol/kg i.p., 7 days
Experimental: DIO mice were injected intraperitoneally with vehicle only or 15 or 70 nmol/kg of one of the following:
Body weight was measured before injection and at 1, 3, 5, and 7 days post-injection.

[6] = system: Uncoupling protein I (UCP1); assay: UCP1 levels in brown adipose tissue; set-up: species or system mice; settings: mouse, in vivo
[7] = system: hormone sensitive lipase (HSL); assay: Western blot of WAT HSL phosphorylation; assay type: in vivo, mice; settings: one month treatment
Experimental: Adipose tissue was placed in a 1.5-ml microfuge tube and lysed in ice cold RIPA buffer (1×PBS, 1% Nonidet P40, 0.5% sodium doxycholate, 0.1% SDS with 50 mM NaF, […], 0.1 mM Na Vanadate, 20 μg/ml Aprotinin, 10 μg/ml Leupeptin) using a tissue lyser (Retsch, Inc Newtown, Pa. Cat. #85210) at 30 hz for 3 min. Samples were spun at 12,000 rpm for 15 min (4° C.) at which time the internatant was removed to a new tube and sonicated for 15 sec on ice. Samples were spun at 14,000 rpm for 10 min (4° C.) and the internatant was collected to a new tube. Samples were again spun at 19,000 rpm for 10 min (4° C.) and the internatant collected to a new tube. An aliquot of sample was then taken for protein assay. Samples were then boiled in 4×SDS/DTT buffer for 2 min. 50 μg of protein from cell lysate were subjected to SDS/PAGE on 9% (w/v) acrylamide resolving gels and transferred to Hybond ECL nictrocellulose membranes. […] After washing, primary antibody detection was performed using either HRP-conjugated anti-(rabbit IgG) or anti-(mouse IgG) (HRP-conjugated anti-rabbit and anti-mouse secondary antibodies were purchased from Bio-Rad (170-6515 & 170-6516)) and detected using enhanced chemiluminescence (Amersham Biosciences) and exposed to CL-Xposure film (Pierce).

[8] = Diet-induced obese rats, once-a-week injection, 3-week treatment; assay type: in vivo; settings: 70 nmol/kg/week, 3 weeks
Experimental: To determine if the principal phenomenon generalizes across species, both compounds were administered to diet-induced obese rats (mean weight 777.4+/−2.1 g, dose 70 nmol/kg/week, once-a-week injection, 3-week treatment).

[9] = GLP-1 receptor knock out (GLP-1R−/−) mice on high-fat diet, one month; assay type: in vivo
[10] = Diet-induced obese C57B6 mice, s.c. Peptide X-PEG / Y-PEG (Examples 45-49); assay type: in vivo; settings: for blood glucose profile (AUC), i.p. glucose challenge: Day 3; for Blood glucose levels, mean decrease: from Day 3; for decrease in body weight: one month
Experimental: C57BI/6 mice were obtained from Jackson Laboratories and fed a diabetogenic diet from Research Diets, a high sucrose diet with 58% kcal from fat. Mice were single or group-housed on a 12:12-h light-dark cycle at 22° C. with free access to food and water. All studies were approved by and performed according to the guidelines of the Institutional Animal Care and Use Committee of the University of Cincinnati.
Whole body composition (fat and lean mass) was measured using NMR technology (EchoMRI, Houston, Tex.).
Energy intake and expenditure, as well as home-cage activity, were assessed by using a combined indirect calorimetry system (TSE Systems, Bad Homburg, Germany). Oxygen consumption and CO2 production were measured every 45 min for a total of 120 h (including 12 h of adaptation) to determine the respiratory quotient and energy expenditure. Food and water intake and meal patterns were determined continuously for 120 h at the same time as the indirect calorimetry assessments by integration of scales into the sealed cage environment. Meals were defined as food intake events with a minimum duration of 60 s, and a break of 300 s between food intake events. Home-cage locomotor activity was determined using a multidimensional infrared light beam system with beams scanning the bottom and top levels of the cage, and activity being expressed as beam breaks. Stationary motor activity (fidgeting) was defined as consecutive breaks of one single light beam at cage-bottom level, ambulatory movement as breaks of any two different light beams at cage-bottom level, and rearing as simultaneous breaks of light beams on both cage-bottom and the top level.
Blood was collected after a 6-h fast from tail veins using EDTA-coated Microvette tubes (Sarstedt, Nuremberg, Germany) and immediately chilled on ice. After 15 min of centrifugation at 3,000 g and 4° C., plasma was stored at −80° C. Plasma insulin was quantified by a radioimmunoassay from Linco (Sensitive Rat Insulin RIA; Linco Research, St. Charles, Mo.). Plasma TGs and cholesterol levels were measured by enzymatic assay kits (Thermo Electron, Waltham, Mass.). Samples were analyzed individually with the exception that pooled samples (0.25 ml) from 5 animals/group were subjected to fast-performance liquid chromatography (FPLC) gel filtration on two Superose 6 columns connected in series for lipoprotein separation. All assays were performed according to the manufacturer's instructions.
For the determination of glucose tolerance, mice were subjected to 6 h of fasting and injected intraperitoneally (i.p.) with 2 g glucose/kg body wt (50% D-glucose (Sigma) in 0.9% saline) for the glucose tolerance test (GTT). Tail blood glucose levels (mg/dl) were measured by using a hand-held glucometer (TheraSense Freestyle) before (0 min) and at 15, 30, 60, 90, and 120 min after injection.
The 40-kd pegylated peptides Peptides X-PEG and Y-PEG were used as single weekly subcutaneous (s.c) injections in diet-induced obese (D10) C57B6 mice.
Long-term effects of these lower doses on food intake (p=0.95; FIG. 29C) were less impressive than short-term effects with a higher dose (FIG. 27C).

[11] = 70 nmol/kg s.c. Days 0 and 7, Day 9

Sequence of glucagon receptor (P47871 26-477): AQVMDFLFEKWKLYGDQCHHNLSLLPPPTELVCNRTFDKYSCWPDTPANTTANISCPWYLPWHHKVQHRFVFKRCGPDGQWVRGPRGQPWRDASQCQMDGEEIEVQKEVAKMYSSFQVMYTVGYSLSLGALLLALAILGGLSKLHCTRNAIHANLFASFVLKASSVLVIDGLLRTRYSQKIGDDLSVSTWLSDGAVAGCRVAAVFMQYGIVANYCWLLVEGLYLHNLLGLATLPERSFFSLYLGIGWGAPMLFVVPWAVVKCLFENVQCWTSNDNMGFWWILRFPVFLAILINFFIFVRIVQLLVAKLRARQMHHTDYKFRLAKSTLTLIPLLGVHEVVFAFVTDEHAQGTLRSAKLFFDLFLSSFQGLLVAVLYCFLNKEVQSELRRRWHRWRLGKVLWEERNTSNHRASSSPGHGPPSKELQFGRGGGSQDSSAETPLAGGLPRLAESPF
Sequence of GLP-1 receptor (P43220 24-463, species assumed): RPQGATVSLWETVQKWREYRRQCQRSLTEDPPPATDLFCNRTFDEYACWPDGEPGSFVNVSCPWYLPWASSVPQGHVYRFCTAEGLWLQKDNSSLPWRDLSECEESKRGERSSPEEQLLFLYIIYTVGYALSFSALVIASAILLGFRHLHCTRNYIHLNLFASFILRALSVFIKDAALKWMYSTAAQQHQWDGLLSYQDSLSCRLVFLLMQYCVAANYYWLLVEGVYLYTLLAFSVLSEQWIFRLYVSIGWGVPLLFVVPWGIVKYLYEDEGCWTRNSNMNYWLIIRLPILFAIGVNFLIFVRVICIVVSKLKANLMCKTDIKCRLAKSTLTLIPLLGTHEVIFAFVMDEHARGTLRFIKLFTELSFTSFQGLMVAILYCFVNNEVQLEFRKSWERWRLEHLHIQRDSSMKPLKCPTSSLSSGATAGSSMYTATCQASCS

Compound: γE-γE-C16 Glucagon Amide: C16 Glucagon Amide with C16 attached to Lys10 through gamma-Glu-gamma-Glu dipeptide spacer
fat mass on Day 7 ([1]; 100 nmol/kg): lowest fat mass | ability to cause weight loss ([1]; 30 or 100 nmol/kg daily s.c.): greatest ability to cause weight loss | decrease of blood glucose levels ([1]; higher dose): worked as well as Liraglutide

Compound: Peptide A K^10—C8: Chimera 2 with AIB2, Lys10 acylated with C8 fatty acid, Cys24 40K PEG (H[Aib]QGTFTSDK(C8 fatty acid)SKYLDEQAAKEFIC(PEG 40 kDa)WLMNT-NH2)
blood glucose levels in response to a glucose injection [2]: lowered in comparison to vehicle control | ability to lower blood glucose, glucose challenge 15 min after peptide [3]: greatest ability to lower blood glucose

Compound: Peptide A K^10—C14: Peptide A of Example 20 with Lys10 acylated with a C14 fatty acid chain (H[Aib]QGTFTSDK(C14 fatty acid)SKYLDEQAAKEFIC(PEG 40 kDa)WLMNT-NH2)
total body weight ([2]; 40 or 80 nmol/kg, 14 days): reduced as compared to mice injected with the vehicle control | blood glucose levels in response to a glucose injection [2]: lowered in comparison to vehicle control

Compound: GLP-1
Percent Helicity, 0% TFE ([4]; 10 mM phosphate buffer pH 5.9, 0% TFE): 14% | Percent Helicity, 10% TFE ([4]; 10% TFE): 29% | Percent Helicity, 20% TFE ([4]; 20% TFE): 55%

Percent Potency Relative to Native Ligand, GLP-1Rec (GLP-1 receptor; Table 5): 41.5% | Percent Potency Relative to Native Ligand, GLP-1Rec (GLP-1 receptor; Table 9): 41.5% | EC50 (glucagon receptor; EC50, Glucagon Receptor, Table 13): 0.18 nM | EC50 (glucagon receptor; EC50 at Glucagon Receptor, Table 17): 0.203 nM | Percent Potency Relative to Native Ligand, GRec (glucagon receptor; Table 5): 130.1% | Percent Potency Relative to Native Ligand, GRec (glucagon receptor; Table 9): 130.1%
Compound: CSCC[C@H](NC(=O)[C@H](CC(C)C)NC(=O)[C@H](Cc1c[nH]c2ccccc12)NC(=O)[C@H](CCC(N)=O)NC(=O)[C@@H](NC(=O)[C@H](Cc1ccccc1)NC(=O)[C@H](CC(=O)O)NC(=O)[C@H](CCCCN)NC(=O)[C@H](C)NC(=O)[C@H](CCCNC(=N)N)NC(=O)[C@H](CCCNC(=N)N)NC(=O)[C@H](CCC(=O)O)NC(=O)[C@H](CC(=O)O)NC(=O)[C@H](CC(C)C)NC(=O)[C@H](Cc1ccc(O)cc1)NC(=O)[C@H](CCCCN)NC(=O)[C@H](CO)NC(=O)[C@H](Cc1ccc(O)cc1)NC(=O)[C@H](CC(=O)O)NC(=O)[C@H](CO)NC(=O)[C@@H](NC(=O)[C@H](Cc1ccccc1)NC(=O)[C@@H](NC(=O)CNC(=O)[C@H](CCC(N)=O)NC(=O)[C@H](CO)NC(=O)[C@@H](N)Cc1c[nH]cn1)[C@@H](C)O)[C@@H](C)O)C(C)C)C(=O)N[C@@H](CC(N)=O)C(=O)N[C@H](C(N)=O)[C@@H](C)O [E16, K20 Gluc-NH2, HSQGTFTSDYSKYLDERRAKDFVQW LMNTa]

Compound: H(Aib)QGTFTSDYSKYLDEQAAKEFICWLMNT-amide [Peptide X-PEG]
ability to lower body weight [5]: comparable ability to lower body weight | Uncoupling protein I (UCP1) levels in brown adipose tissue [6]: 2.167±0.429 | phosphorylation of hormone sensitive lipase (HSL) in white adipose tissue [7]: 1.135±0.315 | change in body weight [8]: −11.15+/−0.88% | change in fat mass [8]: −19.17+/−2.03% | body weight [9]: caused a reduction of body weight (p>0.05 | food intake [9]: no effect on food intake | leptin [10, 11]: 7308 ± 2927 pg/mL | plasma triglycerides [10, 11]: no significant effect on triglycerides | blood glucose profile (AUC), i.p. glucose challenge [10]: 13794±824.1 | Plasma C-peptide levels ([10]; after one month of treatment): 624.7 pg/mL | plasma insulin ([10]; after one month of treatment): 1034 pg/mL | total cholesterol ([10]; chronic s.c. treatment over 27 days): 106.9 mg/dL | dose response of body weight and blood glucose ([10]; single s.c. 0-350 nmol/kg): linearly responsive, dose-dependent decreases in body weight and blood glucose | Energy expenditure ([10]; weekly s.c. 70 nmol/kg): 17.19±1.49 kcal/[kg*h] | change in fat mass ([10]; weekly s.c. 70 nmol/kg): −52.2% | respiratory quotient ([10]; weekly s.c. 70 nmol/kg): 0.725±0.01 | Blood glucose levels, mean decrease ([10]; weekly s.c. 70 nmol/kg): −24.5% | decrease in body weight ([10]; weekly s.c. 70 nmol/kg): 20.1%

Compound: H(Aib)QGTFTSDYSKYLDEQAAKEFICWLMNT-amide [Peptide Y-PEG]
change in body weight [8]: −20.58+/−2.26% | change in fat mass [8]: −33.76+/−4.76% | body weight [9]: significant decrease in body weight | fat mass [9]: significant decrease | total cholesterol ([10]; 70 nmol/kg s.c. Days 0 and 7, evaluated Day 9): 63.0 mg/dL | blood glucose profile (AUC), i.p. glucose challenge [10]: 14183±1072 | Blood glucose levels, mean decrease ([10]; weekly s.c. 70 nmol/kg): −32% | decrease in body weight ([10]; weekly s.c. 70 nmol/kg): 28.1%

Compound: CCCCCCCCCCCCCC(=O)NCCCC[C@H](NC(=O)[C@H](CC(=O)O)NC(=O)[C@H](CO)NC(=O)[C@@H](NC(=O)[C@H](Cc1ccccc1)NC(=O)[C@@H](NC(=O)CNC(=O)[C@H](CCC(N)=O)NC(=O)[C@H](CO)NC(=O)C(C)(C)c1c[nH]cn1)[C@@H](C)O)[C@@H](C)O)C(=O)N[C@@H](CO)C(=O)N[C@@H](CCCCN)C(=O)N[C@@H](Cc1ccc(O)cc1)C(=O)N[C@@H](CC(C)C)C(=O)N[C@@H](CC(=O)O)C(=O)N[C@H]1CCC(=O)NCCCC[C@@H](C(=O)N[C@@H](CC(=O)O)C(=O)N[C@@H](Cc2ccccc2)C(=O)N[C@H](C(=O)N[C@@H](CCC(N)=O)C(=O)N[C@@H](Cc2c[nH]c3ccccc23)C(=O)N[C@@H](CC(C)C)C(=O)N[C@@H](CCSC)C(=O)N[C@@H](CC(N)=O)C(=O)N[C@H](C(N)=O)[C@@H](C)O)C(C)C)NC(=O)[C@H](C)NC(=O)[C@H](CCCNC(=N)N)NC(=O)[C@H](CCCNC(=N)N)NC1=O [DMIA1, K10(C14), [E16/K20]-Gluc Amide]
% Activity of GLP-1 (GLP-1 receptor): 30% | % Activity of Glucagon (glucagon receptor; Table 21): 203.7%
